Source: patent US20210254001A1, “FcyRIIIa signaling generates Bcl6+PD1+CD4+ Tfh-like cells” (priority 2020, published 2021)
Entries after “also recorded” stand apart in the source; their conditions may differ.

Tested on: purified human CD4+ T cells
Experiment: IL-21 production in IC-treated CD4+ T cells with Syk inhibitor
Format: cell-based
Conditions: P505 10 nM; cells producing IL-21 from IC treatment; FIG. 4F (A)

NC(=O)c1cnc(N[C@@H]2CCCC[C@@H]2N)nc1Nc1cccc(-n2nccn2)c1 [P505]
IL-21 production: IL-21 production is blocked; also recorded: inhibits IL-21 production
